Measured values: US8030478B2, “Method for nucleic acid replication and novel artificial base pairs” (priority 2005, dated 2011)
Like-named read-outs stand apart in the source and are kept apart here.

Molecular target: T7 RNA polymerase (Escherichia phage T7, UniProt P00573)
Conditions: for Composition of nucleotide incorporated as 5′ neighbor of A: Cp / Composition of nucleotide incorporated as 5′ neighbor of A: Up / Composition of nucleotide incorporated as 5′ neighbor of A: Ap / Composition of nucleotide incorporated as 5′ neighbor of A: Np (Pa′p) / Composition of nucleotide incorporated as 5′ neighbor of A: Gp: [α-32P]ATP; for Composition of nucleotide incorporated as 5′ neighbor of U: Np (Pa′p) / Composition of nucleotide incorporated as 5′ neighbor of U: Ap / Composition of nucleotide incorporated as 5′ neighbor of U: Gp / Composition of nucleotide incorporated as 5′ neighbor of U: Up / Composition of nucleotide incorporated as 5′ neighbor of U: Cp: [α-32P]UTP
[1] = Entry 7, template temp35Ds-3, natural NTP 1 mM, Pa′ 1 mM, theoretical [0]
[2] = Entry 7, template temp35Ds-3, natural NTP 1 mM, Pa′ 1 mM, theoretical [1]
[3] = Entry 8, template temp35Ds-3, natural NTP 1 mM, Pa′ 3 mM, theoretical [0]
[4] = Entry 8, template temp35Ds-3, natural NTP 1 mM, Pa′ 3 mM, theoretical [1]
[5] = Entry 9, template temp35A-3, natural NTP 1 mM, Pa′ 1 mM, theoretical [0]
[6] = Entry 9, template temp35A-3, natural NTP 1 mM, Pa′ 1 mM, theoretical [1]
[7] = Entry 10, template temp35A-3, natural NTP 1 mM, Pa′ 3 mM, theoretical [0]
[8] = Entry 10, template temp35A-3, natural NTP 1 mM, Pa′ 3 mM, theoretical [1]
[9] = Entry 11, template temp35G-3, natural NTP 1 mM, Pa′ 1 mM, theoretical [0]
[10] = Entry 11, template temp35G-3, natural NTP 1 mM, Pa′ 1 mM, theoretical [1]
[11] = Entry 12, template temp35G-3, natural NTP 1 mM, Pa′ 3 mM, theoretical [0]
[12] = Entry 12, template temp35G-3, natural NTP 1 mM, Pa′ 3 mM, theoretical [1]
[13] = Entry 25, template DNA12, natural NTP 3 mM, Pa′ 3 mM, theoretical [6]
[14] = Entry 27, template DNAcont4, natural NTP 3 mM, Pa′ 3 mM, theoretical [6]
[15] = Entry 32, template DNA11, natural NTP 3 mM, Pa′ 3 mM, theoretical [4]
[16] = Entry 33, template DNA12, natural NTP 3 mM, Pa′ 3 mM, theoretical [4]
[17] = Entry 35, template DNAcont4, natural NTP 3 mM, Pa′ 3 mM, theoretical [4]

Sequence of T7 RNA polymerase (P00573 whole entry): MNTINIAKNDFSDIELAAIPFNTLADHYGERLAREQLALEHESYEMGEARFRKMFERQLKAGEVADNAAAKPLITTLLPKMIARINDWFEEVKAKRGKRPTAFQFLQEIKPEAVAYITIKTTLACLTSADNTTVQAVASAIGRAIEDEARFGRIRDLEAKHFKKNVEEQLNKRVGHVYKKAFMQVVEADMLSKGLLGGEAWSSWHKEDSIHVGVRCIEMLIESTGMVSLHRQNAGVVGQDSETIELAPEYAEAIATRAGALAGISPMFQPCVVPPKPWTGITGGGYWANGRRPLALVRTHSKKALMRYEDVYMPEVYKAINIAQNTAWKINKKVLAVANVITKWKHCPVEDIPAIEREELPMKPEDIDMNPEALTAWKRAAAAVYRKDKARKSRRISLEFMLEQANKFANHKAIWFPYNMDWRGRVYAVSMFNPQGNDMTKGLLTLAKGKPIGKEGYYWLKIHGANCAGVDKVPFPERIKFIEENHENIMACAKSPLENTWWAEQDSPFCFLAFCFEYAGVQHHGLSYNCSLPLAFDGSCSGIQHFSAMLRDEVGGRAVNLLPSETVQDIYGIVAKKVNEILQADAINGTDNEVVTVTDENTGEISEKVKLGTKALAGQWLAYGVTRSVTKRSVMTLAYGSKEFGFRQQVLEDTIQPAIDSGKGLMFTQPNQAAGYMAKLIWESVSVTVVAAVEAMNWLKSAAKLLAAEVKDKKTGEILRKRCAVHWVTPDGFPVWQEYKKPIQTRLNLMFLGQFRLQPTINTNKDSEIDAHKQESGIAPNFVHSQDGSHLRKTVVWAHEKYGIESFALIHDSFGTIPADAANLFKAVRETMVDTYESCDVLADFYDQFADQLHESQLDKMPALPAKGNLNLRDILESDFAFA
Protocol: Transcription (20 μl) was accomplished in 40 mM Tris-HCl buffer (pH 8.0) containing 24 mM MgCl2, 2 mM spermidine, 5 mM DTT, 0.01% Triton X-100, 1-3 mM each natural NTP, 0-3 mM Pa′TP, 0-3 mM DsTP, 10 mM GMP, 2 μM template DNA (for 17-mer transcript synthesis) or 0.5 μM template DNA (for tRNA transcript synthesis), and 2.5 units/μl T7 RNA polymerase (TAKARA). […] For nucleotide composition analysis in transcripts (Non-patent Documents 17 and 33), the transcripts were internally labeled with 2 μCi [α-^32P]UTP or [α-^32P]ATP (Amersham). After the transcription, the products were digested with 0.75 units of RNase T2 at 37° C. for 2 hours in 10 μl of 15 mM sodium acetate buffer (pH 4.5). For 17-mer analysis, 0.05 A260 units of E. coli tRNA (Sigma) was added to the digestion reaction solution. The digestion products were analyzed by 2D-TLC (HPTLC plate, 100×100 mm, Merck). The developing solvents used for the first and second dimensions were isobutyric acid-ammonia-water (66:1:33 v/v/v) and isopropyl alcohol-HCl-water (70:15:15 v/v/v or 75:15:10 v/v/v for Pa′ transcripts), respectively. Spots of the labeled nucleotides on the TLC plate were analyzed with a bio-imaging analyzer.
The internally ^32P-labeled transcripts were digested with Rnase T2, and the resulting labeled nucleoside 3′-monophosphates were analyzed by 2D thin-layer chromatography (2D-TLC).

CC#Cc1cc(C=O)n([C@@H]2O[C@H](COP(=O)(O)OP(=O)(O)OP(=O)(O)O)[C@@H](O)[C@H]2O)c1 [Pa′TP, 4-Propynyl-1-(β-D-ribofuranosyl)pyrrole-2-carbaldehyde 5′-triphosphate]
Composition of nucleotide incorporated as 5′ neighbor of A: Cp [1]: 0.01 [0] | Composition of nucleotide incorporated as 5′ neighbor of A: Up [1]: 0.02 [0] | Composition of nucleotide incorporated as 5′ neighbor of A: Ap [2]: 1.03 [1] | Composition of nucleotide incorporated as 5′ neighbor of A: Np (Pa′p) [2]: 0.95 [1] | Composition of nucleotide incorporated as 5′ neighbor of A: Gp (Entry 7, template temp35Ds-3, natural NTP 1 mM, Pa′ 1 mM, theoretical [2]): 2.00 [2] | Composition of nucleotide incorporated as 5′ neighbor of A: Cp [3]: 0.01 [0] | Composition of nucleotide incorporated as 5′ neighbor of A: Up [3]: 0.02 [0] | Composition of nucleotide incorporated as 5′ neighbor of A: Ap [4]: 1.01 [1] | Composition of nucleotide incorporated as 5′ neighbor of A: Np (Pa′p) [4]: 0.97 [1] | Composition of nucleotide incorporated as 5′ neighbor of A: Gp (Entry 8, template temp35Ds-3, natural NTP 1 mM, Pa′ 3 mM, theoretical [2]): 1.99 [2] | Composition of nucleotide incorporated as 5′ neighbor of A: Cp [5]: n.d. [0] | Composition of nucleotide incorporated as 5′ neighbor of A: Np (Pa′p) [5]: n.d. [0] | Composition of nucleotide incorporated as 5′ neighbor of A: Ap [6]: 0.99 [1] | Composition of nucleotide incorporated as 5′ neighbor of A: Up [6]: 1.03 [1] | Composition of nucleotide incorporated as 5′ neighbor of A: Gp (Entry 9, template temp35A-3, natural NTP 1 mM, Pa′ 1 mM, theoretical [2]): 1.98 [2] | Composition of nucleotide incorporated as 5′ neighbor of A: Cp [7]: 0.01 [0] | Composition of nucleotide incorporated as 5′ neighbor of A: Np (Pa′p) [7]: n.d. [0] | Composition of nucleotide incorporated as 5′ neighbor of A: Ap [8]: 0.99 [1] | Composition of nucleotide incorporated as 5′ neighbor of A: Up [8]: 1.00 [1] | Composition of nucleotide incorporated as 5′ neighbor of A: Gp (Entry 10, template temp35A-3, natural NTP 1 mM, Pa′ 3 mM, theoretical [2]): 1.99 [2] | Composition of nucleotide incorporated as 5′ neighbor of A: Np (Pa′p) [9]: n.d. [0] | Composition of nucleotide incorporated as 5′ neighbor of A: Up [9]: 0.01 [0] | Composition of nucleotide incorporated as 5′ neighbor of A: Ap [10]: 1.01 [1] | Composition of nucleotide incorporated as 5′ neighbor of A: Cp [10]: 1.00 [1] | Composition of nucleotide incorporated as 5′ neighbor of A: Gp (Entry 11, template temp35G-3, natural NTP 1 mM, Pa′ 1 mM, theoretical [2]): 1.98 [2] | Composition of nucleotide incorporated as 5′ neighbor of A: Np (Pa′p) [11]: n.d. [0] | Composition of nucleotide incorporated as 5′ neighbor of A: Up [11]: 0.01 [0] | Composition of nucleotide incorporated as 5′ neighbor of A: Ap [12]: 1.00 [1] | Composition of nucleotide incorporated as 5′ neighbor of A: Cp [12]: 1.01 [1] | Composition of nucleotide incorporated as 5′ neighbor of A: Gp (Entry 12, template temp35G-3, natural NTP 1 mM, Pa′ 3 mM, theoretical [2]): 1.98 [2] | Composition of nucleotide incorporated as 5′ neighbor of A: Up (Entry 24, template DNA11, natural NTP 3 mM, Pa′ 3 mM, theoretical [0]): 0.09 [0] | Composition of nucleotide incorporated as 5′ neighbor of A: Np (Pa′p) (Entry 24, template DNA11, natural NTP 3 mM, Pa′ 3 mM, theoretical [1]): 0.97 [1] | Composition of nucleotide incorporated as 5′ neighbor of A: Ap (Entry 24, template DNA11, natural NTP 3 mM, Pa′ 3 mM, theoretical [5]): 5.08 [5] | Composition of nucleotide incorporated as 5′ neighbor of A: Gp (Entry 24, template DNA11, natural NTP 3 mM, Pa′ 3 mM, theoretical [6]): 5.98 [6] | Composition of nucleotide incorporated as 5′ neighbor of A: Cp (Entry 24, template DNA11, natural NTP 3 mM, Pa′ 3 mM, theoretical [7]): 6.88 [7] | Composition of nucleotide incorporated as 5′ neighbor of A: Up (Entry 25, template DNA12, natural NTP 3 mM, Pa′ 3 mM, theoretical [0]): 0.07 [0] | Composition of nucleotide incorporated as 5′ neighbor of A: Np (Pa′p) (Entry 25, template DNA12, natural NTP 3 mM, Pa′ 3 mM, theoretical [1]): 0.98 [1] | Composition of nucleotide incorporated as 5′ neighbor of A: Ap [13]: 6.05 [6] | Composition of nucleotide incorporated as 5′ neighbor of A: Gp [13]: 5.94 [6] | Composition of nucleotide incorporated as 5′ neighbor of A: Cp (Entry 25, template DNA12, natural NTP 3 mM, Pa′ 3 mM, theoretical [7]): 6.96 [7] | Composition of nucleotide incorporated as 5′ neighbor of A: Np (Pa′p) (Entry 27, template DNAcont4, natural NTP 3 mM, Pa′ 3 mM, theoretical [0]): n.d. [0] | Composition of nucleotide incorporated as 5′ neighbor of A: Up (Entry 27, template DNAcont4, natural NTP 3 mM, Pa′ 3 mM, theoretical [1]): 1.06 [1] | Composition of nucleotide incorporated as 5′ neighbor of A: Ap [14]: 6.04 [6] | Composition of nucleotide incorporated as 5′ neighbor of A: Gp [14]: 6.00 [6] | Composition of nucleotide incorporated as 5′ neighbor of A: Cp (Entry 27, template DNAcont4, natural NTP 3 mM, Pa′ 3 mM, theoretical [7]): 6.90 [7] | Composition of nucleotide incorporated as 5′ neighbor of U: Np (Pa′p) (Entry 32, template DNA11, natural NTP 3 mM, Pa′ 3 mM, theoretical [0]): 0.01 [0] | Composition of nucleotide incorporated as 5′ neighbor of U: Ap (Entry 32, template DNA11, natural NTP 3 mM, Pa′ 3 mM, theoretical [2]): 2.01 [2] | Composition of nucleotide incorporated as 5′ neighbor of U: Gp [15]: 3.98 [4] | Composition of nucleotide incorporated as 5′ neighbor of U: Up [15]: 4.00 [4] | Composition of nucleotide incorporated as 5′ neighbor of U: Cp (Entry 32, template DNA11, natural NTP 3 mM, Pa′ 3 mM, theoretical [5]): 5.01 [5] | Composition of nucleotide incorporated as 5′ neighbor of U: Np (Pa′p) (Entry 33, template DNA12, natural NTP 3 mM, Pa′ 3 mM, theoretical [0]): 0.01 [0] | Composition of nucleotide incorporated as 5′ neighbor of U: Ap (Entry 33, template DNA12, natural NTP 3 mM, Pa′ 3 mM, theoretical [2]): 2.00 [2] | Composition of nucleotide incorporated as 5′ neighbor of U: Cp [16]: 4.05 [4] | Composition of nucleotide incorporated as 5′ neighbor of U: Gp [16]: 3.94 [4] | Composition of nucleotide incorporated as 5′ neighbor of U: Up [16]: 4.01 [4] | Composition of nucleotide incorporated as 5′ neighbor of U: Np (Pa′p) (Entry 35, template DNAcont4, natural NTP 3 mM, Pa′ 3 mM, theoretical [0]): n.d. [0] | Composition of nucleotide incorporated as 5′ neighbor of U: Ap (Entry 35, template DNAcont4, natural NTP 3 mM, Pa′ 3 mM, theoretical [2]): 2.02 [2] | Composition of nucleotide incorporated as 5′ neighbor of U: Gp [17]: 4.00 [4] | Composition of nucleotide incorporated as 5′ neighbor of U: Up [17]: 3.97 [4] | Composition of nucleotide incorporated as 5′ neighbor of U: Cp (Entry 35, template DNAcont4, natural NTP 3 mM, Pa′ 3 mM, theoretical [5]): 5.01 [5]
